Experimental data reported in patent US10266526B2, “Substituted 1,2,3-triazoles as SMYD inhibitors for treating cancer” (EPIZYME, INC., priority 2014, dated 2019).

Molecular target: SMYD2 (Homo sapiens (Human), UniProt Q9NRG4)
Assay: SMYD2 biochemical assay (SMYD2 enzyme assay on peptide substrate, 3H-SAM Flashplate)
Details: read-out: SMYD2 Biochem IC50; IC50 values are an average of n = 1 to n = 50

Chain of SMYD2 (Q9NRG4 whole entry): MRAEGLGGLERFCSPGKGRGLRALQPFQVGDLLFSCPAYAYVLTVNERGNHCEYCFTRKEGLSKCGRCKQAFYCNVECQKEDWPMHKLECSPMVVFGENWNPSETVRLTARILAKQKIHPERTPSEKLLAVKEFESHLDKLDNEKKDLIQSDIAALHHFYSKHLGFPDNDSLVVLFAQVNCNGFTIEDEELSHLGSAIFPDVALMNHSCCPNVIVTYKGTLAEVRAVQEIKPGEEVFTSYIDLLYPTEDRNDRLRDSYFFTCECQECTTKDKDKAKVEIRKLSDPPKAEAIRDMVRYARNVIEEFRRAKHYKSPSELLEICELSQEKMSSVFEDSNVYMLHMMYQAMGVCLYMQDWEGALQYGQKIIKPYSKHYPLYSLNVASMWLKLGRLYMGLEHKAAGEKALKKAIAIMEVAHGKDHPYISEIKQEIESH

Point of comparison: `Cn1cc(COc2ccc(CN3CC(NC(=O)c4cn(C5CC5)nn4)C3)cc2)cn1` [compound 1025, 1-cyclopropyl-N-(1-(4-((1-methyl-1H-pyrazol-4-yl)methoxy)benzyl)azetidin-3-yl)-1H-1,2,3-triazole-4-carboxamide], IC50 1200 nM. Against it:
- O=C(NC1CN(Cc2cncn2Cc2ccccc2)C1)c1cn(C2CC2)nn1 [compound 809, N-{1-[(1-benzyl-1H-imidazol-5-yl)methyl]azetidin-3-yl}-1-cyclopropyl-1H-1,2,3-triazole-4-carboxamide] — higher, > 50000 nM
- CC(c1n[nH]c2ccccc12)N1CC(NC(=O)c2cn(C3CC3)nn2)C1 (stereo not drawn) [compound 761, 1-cyclopropyl-N-{1-[1-(1H-indazol-3-yl)ethyl]azetidin-3-yl}-1H-1,2,3-triazole-4-carboxamide] — 2.7-fold higher, 3210 nM
- CC(c1ccc2c(cnn2C)c1)N1CC(NC(=O)c2cn(C3CC3)nn2)C1 (stereo not drawn) [compound 952, 1-cyclopropyl-N-(1-(1-(1-methyl-1H-indazol-5-yl)ethyl)azetidin-3-yl)-1H-1,2,3-triazole-4-carboxamide] — within 1.5-fold, 1630 nM
- O=C(NC1CN(Cc2ccc(OCc3ccccn3)cc2)C1)c1cn(C2CC2)nn1 [compound 849, 1-cyclopropyl-N-(1-{[4-(pyridin-2-ylmethoxy)phenyl]methyl}azetidin-3-yl)-1H-1,2,3-triazole-4-carboxamide] — 2.2-fold higher, 2660 nM
- CC(c1ccc(OCc2ccccc2)cc1)N1CC(NC(=O)c2cn(C3CC3)nn2)C1 (stereo not drawn) [compound 693, N-(1-{1-[4-(benzyloxy)phenyl]ethyl}azetidin-3-yl)-1-cyclopropyl-1H-1,2,3-triazole-4-carboxamide] — 6.8-fold lower, 176 nM
- CC(c1cc(Cl)ccc1C(F)(F)F)N1CC(NC(=O)c2cn(C3CC3)nn2)C1 (stereo not drawn) [compound 976, N-(1-(1-(5-chloro-2-(trifluoromethyl)phenyl)ethyl)azetidin-3-yl)-1-cyclopropyl-1H-1,2,3-triazole-4-carboxamide] — 1.5-fold higher, 1800 nM
- O=C(NC1CN(Cc2cnn(Cc3ccc4scnc4c3)c2)C1)c1cn(C2CC2)nn1 [compound 936, N-(1-((1-(benzo[d]thiazol-5-ylmethyl)-1H-pyrazol-4-yl)methyl)azetidin-3-yl)-1-cyclopropyl-1H-1,2,3-triazole-4-carboxamide] — 15-fold lower, 80 nM
- COc1c(OCCO)cccc1C(C)N1CC(NC(=O)c2cn(C3CC3)nn2)C1 (stereo not drawn) [compound 776, 1-cyclopropyl-N-(1-{1-[3-(2-hydroxyethoxy)-2-methoxyphenyl]ethyl}azetidin-3-yl)-1H-1,2,3-triazole-4-carboxamide] — 3.5-fold lower, 345 nM
- COc1ccc(C(C)N2CC(NC(=O)c3cn(C4CC4)nn3)C2)nc1 (stereo not drawn) [compound 923, 1-cyclopropyl-N-(1-(1-(5-methoxypyridin-2-yl)ethyl)azetidin-3-yl)-1H-1,2,3-triazole-4-carboxamide] — 2.2-fold higher, 2700 nM
- CC(C)N1CC(NC(=O)c2cn(C3CC3)nn2)C1 [compound 663, 1-cyclopropyl-N-[1-(propan-2-yl)azetidin-3-yl]-1H-1,2,3-triazole-4-carboxamide] — 2.1-fold lower, 585 nM
- O=C(NC1CN(Cc2ccc(OCc3nncs3)cc2)C1)c1cn(C2CC2)nn1 [compound 988, N-(1-(4-((1,3,4-thiadiazol-2-yl)methoxy)benzyl)azetidin-3-yl)-1-cyclopropyl-1H-1,2,3-triazole-4-carboxamide] — 1.6-fold higher, 1900 nM
- Cc1nc(C)c(C(C)N2CC(NC(=O)c3cn(C4CC4)nn3)C2)s1 (stereo not drawn) [compound 718, 1-cyclopropyl-N-{1-[1-(dimethyl-1,3-thiazol-5-yl)ethyl]azetidin-3-yl}-1H-1,2,3-triazole-4-carboxamide] — 2.5-fold higher, 2950 nM
- CN(C)CCCN1CC(NC(=O)c2cn(C3CC3)nn2)C1 [compound 708, 1-cyclopropyl-N-{1-[3-(dimethylamino)propyl]azetidin-3-yl}-1H-1,2,3-triazole-4-carboxamide] — higher, > 50000 nM
- CC(c1ccc(OCC2CCNCC2)cc1)N1CC(NC(=O)c2cn(C3CC3)nn2)C1 (stereo not drawn) [compound 925, 1-cyclopropyl-N-(1-(1-(4-(piperidin-4-ylmethoxy)phenyl)ethyl)azetidin-3-yl)-1H-1,2,3-triazole-4-carboxamide] — 3.6-fold higher, 4300 nM
